Measurements published in PMC5326599 (Antiviral research, 2017).
“And” between values parts separate entries of the source, which are not always exact repeats. Equal entries are not always repeated. Marks after values point to notes of the source that are not given here.

Tests used:
[1] = test system: A/Udorn/72 (H3N2) virus (M2-WT); assay: microbe, parasite or virus in culture; type: cell-based; conditions: Influenza A virus, H3N2, MDCK, read-out: Antiviral Efficacy EC50, A/Udorn/72 (H3N2) M2-WT
[2] = test system: influenza A/Solomon Islands/3/2006 (H1N1) virus; parameters: species or system BALB/c mice; conditions: mouse, in vivo
MDCK cells = conditions: read-out: Cytotoxicity CC50, neutral red, 24 h
[3] = mouse, in vivo

Row | Compound | EC50 [1] [µM] | MDD ± SD (mean day of death) [2] | Survivors/Total [2] | survival rate / protection [2] [%] | CC50 (MDCK cells) [µM] | body weight difference compared to placebos and normal control animals [3] [%] | tolerability [3]
1 | NC12CC3CC(CC(C3)C1)C2 [Amantadine (1), amantadine] | […] | 13.0 ± 6.4 days and 9.4 ± 1.9 days | […] | […] | – | – | –
2 | NC1CCC2(CC1)C1CC3CC(C1)CC2C3 (stereo not drawn) [Compound 3, spiroadamantane amine] | – | – | 7/10^*** and 1/10 and 0/10 | 70 | 27.6 ± 0.5 | 3 | well tolerated
